We go through three molecules from ChEMBL document CHEMBL3045085, “Structureactivity relationship study of growth inhibitory 2-styrylchromones against carcinoma cells” (2013).

The structures appear in SMILES notation. Where only a bound is given, the exact number is not on record here.

What all share (type): functional
In one test the test system is OVCAR. The test can be described thus: Growth inhibition of Homo sapiens (human) OVCAR cells after 48 hr by MTT assay.
A further test relates to AGS. The test can be described thus: Growth inhibition of Homo sapiens (human) AGS cells after 48 hr by MTT assay. A general note: Tetrazolium dyes change colour on reduction, which living cells bring about.
The nature of test [1]: Growth inhibition of Homo sapiens (human) SKHep cells after 48 hr by MTT assay.
Test [2] can be described thus: Growth inhibition of Homo sapiens (human) H460 cells after 48 hr by MTT assay. The following applies: NCI-H460, 48 h.
Another test relates to HeLa. The test can be described thus: Growth inhibition of Homo sapiens (human) HeLa cells after 48 hr by MTT assay.
The next test relates to SW-620. The test can be described thus: Growth inhibition of Homo sapiens (human) SW620 cells after 48 hr by MTT assay. The note with it: SW-620, 48 h.
A further test has as its system PC-3. The test can be described thus: Growth inhibition of Homo sapiens (human) PC3 cells after 48 hr by MTT assay. The note with it: PC-3, 48 h.

In the case of `O=c1cc(/C=C/c2ccc3c(c2)OCO3)oc2ccccc12`, the GI50 in the test with OVCAR was more than 40000 nM; with AGS it was more than 40000 nM; in test [1], more than 40000 nM; in test [2], more than 40000 nM; in the test with HeLa it was 14000 nM.

In the case of `O=c1cc(/C=C/c2ccccc2)oc2ccccc12`, the GI50 in the test with OVCAR was 21000 nM; in the test on AGS it was more than 40000 nM; in test [1], more than 40000 nM; in test [2], more than 40000 nM; with HeLa, 25000 nM.

Regarding `COc1cccc2c1C(=O)c1c(O)c3c(c(O)c1C2=O)C[C@@](O)(C(=O)CO)C[C@@H]3O[C@H]1C[C@H](N)[C@H](O)[C@H](C)O1` [DOXORUBICIN], the concentration for 50% growth inhibition (GI50) stood at 950 nM in the test with OVCAR; 20 nM with AGS; 90 nM in test [1]; 30 nM in the test with SW-620; 1760 nM in the test on PC-3; 110 nM in test [2]. Further, in the test with HeLa, the GI50 worked out at 330 nM.

Broadly, the GI50 is the concentration that inhibits growth by half. Lower therefore signals greater sensitivity of the cells.
